Assay results reported in patent US20230364204A1, “Bioactive Peptides, Compositions, Production Process, and Use of Bioactive Peptides as Anti-Tumoral Agents” (priority 2022, published 2023).

How the values were obtained:
Assay type in all cases: cell-based
[1] = system: MDAMB231 cells (triple negative); test: MTT cell viability, tumor cells
Experimental: For the method of MTT, the cells were plated in 96-well sterile plates for cell culture with a cap at the density of 2 × 10^4 cells/well for treatments lasting 24 h and 1 × 10^4 cells/well for treatments lasting 48 h or more, completing the volume to 100 µL with culture medium. The plates were incubated for 8-16 h in an incubator at 37° C. and 5% CO2. The next day, the treatments were prepared in culture medium, applying 200 µL/well at the desired concentration, and the plates were placed in an incubator at 37° C. and 5% CO2for the duration of treatment. After the treatment period, 20 µL/well of a MTT solution was added in PBS (1×) at a concentration of 5 mg/mL, and the dye was incubated at 37° C. and 5% CO2 for 2.5 h. After incubation with MTT, Formazan salts were solubilized with the addition of 200 µL of dimethylsulfoxide solution (DMSO): isopropanol (3:1) and agitated for at least 15 minutes at room temperature. After complete dissolution of the salts, the absorbance was read in a spectrophotometer at 570 nm with endpoint protocol.
The calculation of cell viability was performed using the formula: […]
O.D.: optical density captured by spectrophotometer
NOTE: The Basal O.D. is the one found in the blank wells.
In order to determine the efficacy (comparison of doses and times for the MDAMB231 cell line) and safety (comparison between the effects on MDAMB231 and HDFa cells) of the peptide SEQ ID 1 - MFYPDSRCRGPSET (C-terminal region of Crotoxin B), named 3-NAntC, the Analysis of Variance (ANOVA) with Bonferroni post-hoc test was applied to the significance of 5% in GraphPad Prism software version 6.0.

HDFa benign cell line = test: BrdU cellular proliferation, benign cells; settings: maximum time of exposure
Experimental: The method of Bomodeoxyuridine (BrdU) quantification was carried out according to the Standard Operational Protocols Nos. 10 and 12 of the Laboratory of Clinical Cytology of the Faculty of Pharmaceutical Sciences of Ribeirao Preto (FCFRP -USP). In this method, for the BrdU quantification, cells were plated in 96-well sterile plates for cell culture with a cap at the density of 2 × 10^4 cells/well for treatments lasting 24 h and 1 × 10^4 cells/well for treatments with 48 h or more, completing the volume to 100 µL with culture medium. The plates were incubated for 8-16 h in an incubator at 37° C. and 5% CO2. The next day, the treatments were prepared in culture medium, applying 200 µL/well at the desired concentration, and the plates were placed in an incubator at 37° C. and 5% CO2 for the duration of treatment. After the treatment period, 20 µL/well of a BrdU-labeling was added and incubated at 37° C. and 5% CO2 for 2.5 h. After incubation with BrdU labeling, the plates were stored at 2-4° C. up to 1 week. […] Substrate was developed for 15 minutes and reaction was stopped with HCl 6 M solution and read in a spectrophotometer at 495 nm with endpoint.
The calculation of cell proliferation was performed using the formula: […]
O.D.: optical density captured by spectrophotometer NOTE: The Basal O.D. is the one found in the blank wells. […]

MDAMB231 cell line [2] = test: Cell cycle progression (propidium iodide flow cytometry); settings: MDAMB231, 48 h, highest dosage
Experimental: For cell cycle progression method, cells were plated in 6-well sterile plates for cell culture with a cap at the density of 2.5 × 10^5 cells/well for treatments lasting 24 h or more, completing the volume with 1000 µL culture medium. The plates were incubated for 8-16 h in an incubator at 37° C. and 5% CO2. The next day, the treatments were prepared in culture medium, applying 2000 µL/well at the desired concentration, and the plates were placed in an incubator at 37° C. and 5% CO2 for the duration of treatment. After the treatment period, cells were collected in a conic 15 mL tube and washed with 1000 µL of PBS (1×). Cells were resuspended in 500 µL/tube of PBS (1×) and 4.5 mL of Ethanol 70°. Then, tubes were closed and kept at 2-4° C. for up to 2 months. Cells were washed with PBS (1×) and resuspended with 135 µL of PBS (1×). A solution of RnaseA at 100 µg/mL was added and incubated at RT for 30 minutes. After incubation, cells were labeled with 2 µL of Propidium Iodide at 100 µg/mL and read at the flow cytometer for size and DNA content.
In order to determine the effects of the peptide in cell cycle progression (MDAMB231 cell line), the Analysis of Variance (ANOVA) with Dunnet post-hoc test was applied to the significance of 5% in GraphPad Prism software version 6.0.

MDAMB231 cell line [3] = test: Apoptosis/necrosis flow cytometry (Annexin V-FITC / propidium iodide)
Excerpt: Annexin V is a potent marker for apoptosis since it binds to the phosphatidylserine of the cell membrane. This binding only occurs when the phosphatidylserine is externalized in the membrane, which is one of the first signals of apoptosis death. Meanwhile propidium iodide only enters the cells after a membrane rupture and can indicate a final step to cell death. The double labeling with these markers allows to distinguish apoptosis and necrosis death through the following characterization: • Annexin V^- / Pl^-: live cells • Annexin V^+ / Pl^-: cells in early apoptosis • Annexin V^+ / Pl^+: cell in late apoptosis • Annexin V^- / Pl^+: cells in necrosis
For Apoptosis/ Necrosis protocol, cells were plated 6-well sterile plates for cell culture with a cap at the density of 2.5 × 10^5 cells/well for treatments lasting 24 h or more, completing the volume with 1000 µL culture medium. The plates were incubated for 8-16 h in an incubator at 37° C. and 5% CO2. The next day, the treatments were prepared in culture medium, applying 2000 µL/well at the desired concentration, and the plate was placed in an incubator at 37° C. and 5% CO2 for the duration of treatment. After the treatment period, cells were collected in a conic 15 mL tube and washed with 200 µL of binding buffer (1×) from the FITC Annexin V Apoptosis Detection Kit I. Cells were resuspended in 100 µL/tube of binding buffer (1×) and 1 µL of Annexin V-FITC was added to each tube except the blank. Cells were then incubated for 20 min. in ice and in the dark. Then, 50 µL/tube of binding buffer was added and cells were labeled with 2 µL of Propidium Iodide (PI) at 100 µg/mL and read at the flow cytometer for size and fluorescent content (FITC and PI).
In order to determine the effects of the peptide in LDH release, autophagy induction and apoptosis/necrosis profile of MDAMB231 cell line, the Analysis of Variance (ANOVA) with Dunnet and Bonferroni post-hoc tests were applied to the significance of 5% in GraphPad Prism software version 6.0.

## CSCC[C@H](N)C(=O)N[C@@H](Cc1ccccc1)C(=O)N[C@@H](Cc1ccc(O)cc1)C(=O)N1CCC[C@H]1C(=O)N[C@@H](CC(=O)O)C(=O)N[C@@H](CO)C(=O)N[C@@H](CCCNC(=N)N)C(=O)N[C@@H](CS)C(=O)N[C@@H](CCCNC(=N)N)C(=O)NCC(=O)N1CCC[C@H]1C(=O)N[C@@H](CO)C(=O)N[C@@H](CCC(=O)O)C(=O)N[C@H](C(=O)O)[C@@H](C)O [3-NAntC, [H]-MFYPDSRCRGPSET-[OH]]
[1]; MDAMB231, SEQ IDs 2-10 compared to SEQ ID 1
  compared efficacy in decreasing MDAMB231 cells' viability (MTT, FIG. 13/14): highest antitumor effect
[1]; MDAMB231, as early as 48 h of treatment
  antitumor effect compared to Cisplatin (MTT): exceeds the antitumor effect of Cisplatin
HDFa benign cell line
  effect on proliferation of benign cells (BrdU): did not alter the proliferation
MDAMB231 cell line [2]
  decrease in cells in G0/G1: 8.72%
  increase of G2/M percentage: 8.08%
MDAMB231 cell line [3]; MDAMB231, 24 and 48 h, 0.8 µg/mL
  percentage of cells in necrosis: maintaining the percentage of cells in necrosis
MDAMB231 cell line [3]; MDAMB231, 24 h, 0.8 µg/mL
  increase of apoptosis rate: about 20%
MDAMB231 cell line [3]; MDAMB231, 48 h, 0.8 µg/mL
  increase of apoptosis rate: about 20%
MDAMB231 cell line [3]; MDAMB231, 72 h, highest dosage
  increase of apoptosis rate: 28.73%
